Calls of active or inactive are those of the source. No cut-off for these calls is given here.
How the values were obtained:
[1] = target: Amyloid-beta precursor protein (Homo sapiens) (UniProt P05067); test: Inhibition of Amyloid beta (1 to 42) (unknown origin) self aggregation at 20 uM incubated for 12 hrs by thioflavin T assay
[2] = target: Amyloid-beta precursor protein (Homo sapiens) (UniProt P05067); test: Inhibition of Amyloid beta (1 to 42) (unknown origin) self aggregation assessed as decrease in negative maximum of CD spectrum of amyloid beta (1-42) incubated for 4 hrs by CD spectroscopy
[3] = target: Amyloid-beta precursor protein (Homo sapiens) (UniProt P05067); test: Inhibition of Amyloid beta (1 to 42) (unknown origin) fibril formation assessed as reduction in thickness of fibrils at 20 uM incubated for 48 hrs by transmission-type electron microscopy
[4] = target: Amyloid-beta precursor protein (Homo sapiens) (UniProt P05067); test: Inhibition of Amyloid beta (1 to 42) (unknown origin)-induced cytotoxicity in human SH-SY5Y cells assessed as increase in cell viability incubated for 48 hrs by WST8 assay; assay type: cell-based
[5] = target: Amyloid-beta precursor protein (Homo sapiens) (UniProt P05067); test: Inhibition of Amyloid beta (1 to 42) (unknown origin) fibril formation assessed as reduction in number of fibrils at 20 uM incubated for 48 hrs by transmission-type electron microscopy
[6] = tested on: SH-SY5Y; test: Cytotoxicity in human SH-SY5Y cells assessed as reduction in cell viability at 0.1 to 1000 nM incubated for 48 hrs by WST8 assay; assay type: cell-based; conditions: 1 µM
[7] = target: Amyloid-beta precursor protein (Homo sapiens) (UniProt P05067); test: Inhibition of Amyloid beta (1 to 42) (unknown origin)-induced cytotoxicity in human SH-SY5Y cells assessed as increase in cell viability at 20 uM incubated for 48 hrs by WST8 assay; assay type: cell-based
[8] = target: Amyloid-beta precursor protein (Homo sapiens) (UniProt P05067); test: Inhibition of Amyloid beta (1 to 42) (unknown origin)-induced cytotoxicity in human SH-SY5Y cells assessed as increase in cell viability at 40 uM incubated for 48 hrs by WST8 assay; assay type: cell-based

Chain of Amyloid-beta precursor protein (Homo sapiens) (P05067 whole entry): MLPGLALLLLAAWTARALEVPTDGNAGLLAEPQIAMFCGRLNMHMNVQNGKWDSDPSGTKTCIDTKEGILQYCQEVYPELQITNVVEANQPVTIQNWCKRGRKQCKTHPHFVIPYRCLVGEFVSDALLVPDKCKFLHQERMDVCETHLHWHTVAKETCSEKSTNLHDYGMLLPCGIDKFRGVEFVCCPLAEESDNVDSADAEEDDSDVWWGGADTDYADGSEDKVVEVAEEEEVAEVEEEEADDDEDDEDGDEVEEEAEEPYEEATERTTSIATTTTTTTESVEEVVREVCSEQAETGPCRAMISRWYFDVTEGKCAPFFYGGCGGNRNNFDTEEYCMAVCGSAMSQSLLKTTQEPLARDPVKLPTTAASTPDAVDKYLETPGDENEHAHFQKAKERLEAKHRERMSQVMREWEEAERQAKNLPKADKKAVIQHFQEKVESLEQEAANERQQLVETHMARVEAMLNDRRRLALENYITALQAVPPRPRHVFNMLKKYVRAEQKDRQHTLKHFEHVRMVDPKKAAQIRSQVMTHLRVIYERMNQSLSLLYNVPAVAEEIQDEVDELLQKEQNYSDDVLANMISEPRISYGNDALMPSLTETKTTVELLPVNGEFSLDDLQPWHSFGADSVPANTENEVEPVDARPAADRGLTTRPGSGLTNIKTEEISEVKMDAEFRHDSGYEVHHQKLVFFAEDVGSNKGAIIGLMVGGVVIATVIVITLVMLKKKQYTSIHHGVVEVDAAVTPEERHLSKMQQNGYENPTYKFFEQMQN

Row | SMILES | inhibition [1] | inhibition [2] | inhibition [3] | inhibition [5] | inhibition [4] | Activity [6] | inhibition [7] [%] | inhibition [8] [%]
1 | CC1(C)O[C@H]2[C@H](c3c(O)cc(O)c4c3O[C@@H]3c5cc(O)c(O)cc5C(C)(C)O[C@H]3C4)c3c(O)cc(O)cc3O[C@@H]2c2cc(O)c(O)cc21 | Active | Active | Active | Active | Dose-dependent effect | Non-Toxic | 100 | –
2 | CC1(C)O[C@H]2Cc3c(O)cc(O)cc3O[C@@H]2c2cc(O)c(O)cc21 | Active | – | – | – | – | – | – | –

Second part, led by results:

Row | inhibition [1] | inhibition [2] | inhibition [3] | inhibition [5] | SMILES | inhibition [4] | Activity [6] | inhibition [7] [%] | inhibition [8] [%]
3 | Active | – | – | – | Oc1cc(O)c2c(c1)O[C@H](c1ccc(O)c(O)c1)[C@@H](O)[C@@H]2c1c(O)cc(O)c2c1O[C@H](c1ccc(O)c(O)c1)[C@@H](O)C2 | Dose-dependent effect | Non-Toxic | – | 100
4 | Active | – | – | – | Oc1cc(O)c2c(c1)O[C@H](c1ccc(O)c(O)c1)[C@@H](O)C2 | – | – | – | –
5 | Active | – | – | – | CC1(C)O[C@H]2Cc3c(O)cc(O)c([C@@H]4c5c(O)cc(O)cc5O[C@H](c5ccc(O)c(O)c5)[C@H]4O)c3O[C@@H]2c2cc(O)c(O)cc21 | Dose-dependent effect | Non-Toxic | – | 100

Source: ChEMBL document CHEMBL4385658, “Inhibition of β-amyloid-induced neurotoxicity by planar analogues of procyanidin B3” (Bioorg Med Chem Lett, 2019)
